Data reported in ChEMBL document CHEMBL1123584, “Xanthine functionalized congeners as potent ligands at A2-adenosine receptors” (J Med Chem, 1987).

Experiments:
[1] = Partition coefficient (logP); format: physicochemical; details: octanol/water
[2] = molecular target: T1, Adenosine A2 receptor (Homo sapiens) (UniProt P29275+P29274); test: Antagonism of NECA-induced stimulation of adenylate cyclase activity in human platelet membranes at A2-adenosine receptor; value ranges from […]-[…]; format: functional, cell membranes
[3] = molecular target: T1, Adenosine A2 receptor (Homo sapiens); test: Antagonism of NECA-induced stimulation of adenylate cyclase activity in human platelet membranes at A2-adenosine receptor; value ranges from 30-54; format: functional, cell membranes
[4] = molecular target: T1, Adenosine A2 receptor (Homo sapiens); test: Antagonism of NECA-induced stimulation of adenylate cyclase activity in human platelet membranes at A2-adenosine receptor; value ranges from 15-51; format: functional, cell membranes
[5] = molecular target: T2, Adenosine receptor A1 (Rattus norvegicus, UniProt P25099); test: Inhibition of [3H]- PIA binding at adenosine A1 receptor on rat cerebral cortex membranes.; format: cell membranes, Membrane
T2 sequence (P25099 whole entry): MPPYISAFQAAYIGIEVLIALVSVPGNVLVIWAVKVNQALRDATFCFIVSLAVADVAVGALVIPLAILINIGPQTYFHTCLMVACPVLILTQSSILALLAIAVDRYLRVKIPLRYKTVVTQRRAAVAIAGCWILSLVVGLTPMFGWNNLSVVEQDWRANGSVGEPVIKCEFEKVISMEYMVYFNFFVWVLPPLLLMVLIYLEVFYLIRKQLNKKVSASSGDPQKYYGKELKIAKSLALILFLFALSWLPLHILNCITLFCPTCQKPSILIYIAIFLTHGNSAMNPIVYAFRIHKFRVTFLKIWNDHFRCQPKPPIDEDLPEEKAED

[6] = molecular target: T1, Adenosine A2 receptor (Homo sapiens); test: Antagonism of NECA-induced stimulation of adenylate cyclase activity in human platelet membranes at A2-adenosine receptor; value ranges from 75-370; format: functional, cell membranes
[7] = molecular target: T1, Adenosine A2 receptor (Homo sapiens); test: Antagonism of NECA-induced stimulation of adenylate cyclase activity in human platelet membranes at A2-adenosine receptor; value ranges from 100-540; format: functional, cell membranes
[8] = molecular target: T1, Adenosine A2 receptor (Homo sapiens); test: Antagonism of NECA-induced stimulation of adenylate cyclase activity in human platelet membranes at A2-adenosine receptor; value ranges from 54-98; format: functional, cell membranes
[9] = molecular target: T1, Adenosine A2 receptor (Homo sapiens); test: Antagonism of NECA-induced stimulation of adenylate cyclase activity in human platelet membranes at A2-adenosine receptor; value ranges from 17-30; format: functional, cell membranes
[10] = molecular target: T1, Adenosine A2 receptor (Homo sapiens); test: Antagonism of NECA-induced stimulation of adenylate cyclase activity in human platelet membranes at A2-adenosine receptor; value ranges from 35-40; format: functional, cell membranes
[11] = molecular target: T1, Adenosine A2 receptor (Homo sapiens); test: Antagonism of NECA-induced stimulation of adenylate cyclase activity in human platelet membranes at A2-adenosine receptor; format: functional, cell membranes
[12] = molecular target: T1, Adenosine A2 receptor (Homo sapiens); test: Antagonism of NECA-induced stimulation of adenylate cyclase activity in human platelet membranes at A2-adenosine receptor; value ranges from 106-173; format: functional, cell membranes

CCCn1c(=O)c2[nH]c(-c3ccc(OCC(=O)NCCN)cc3)nc2n(CCC)c1=O [XANTHINE AMINE CONGENER]
logP [1]: 0.81

CCn1c(=O)c2nc(-c3ccc(OCC(=O)Nc4ccc(CC(=O)OC)cc4)cc3)[nH]c2n(CC)c1=O
Kb [2]: 210 nM

Cn1c(=O)c2[nH]c(-c3ccc(OCC(=O)NCCN)cc3)nc2n(C)c1=O
logP [1]: -0.63

Cn1c(=O)c2nc(-c3ccc(OCC(=O)NCCN)cc3)[nH]c2n(C)c1=O
Kb [3]: 40 nM

CCn1c(=O)c2nc(-c3ccc(OCC(=O)Nc4ccc(CC(=O)NCCN)cc4)cc3)[nH]c2n(CC)c1=O
Kb [4]: 28 nM

CCOC(=O)COc1ccc(-c2nc3c(=O)n(CC)c(=O)n(CC)c3[nH]2)cc1
Ki [5]: 140 nM

CCCn1c(=O)c2nc(-c3ccc(OCC(=O)OCC)cc3)[nH]c2n(CCC)c1=O
Ki [5]: 13 nM

CCC(=O)OCOc1ccc(-c2nc3c(=O)n(CC)c(=O)n(CC)c3[nH]2)cc1
Kb [6]: 170 nM

CCCn1c(=O)c2[nH]c(-c3ccc(OCC(=O)NCCNC(=O)[C@@H](N)CCCCN)cc3)nc2n(CCC)c1=O
Ki [5]: 0.87 nM

CCn1c(=O)c2[nH]c(-c3ccc(OCC(=O)NCCN)cc3)nc2n(CC)c1=O
logP [1]: -0.06

CCn1c(=O)c2nc(-c3ccc(OCC(=O)NCCNC(=O)C(CCCCNC(=O)OCc4ccccc4)NC(=O)OC(C)(C)C)cc3)[nH]c2n(CC)c1=O (stereo not drawn)
Kb [7]: 230 nM

CCn1c(=O)c2nc(-c3ccc(OCC(=O)NCCN)cc3)[nH]c2n(CC)c1=O
Kb [2]: 21 nM

Cn1c(=O)c2nc(-c3ccc(OCC(=O)Nc4ccc(CC(=O)NCCN)cc4)cc3)[nH]c2n(C)c1=O
logP [1]: -0.05 | Kb [2]: 63 nM

CCn1c(=O)c2nc(-c3ccc(OCC(=O)OC(C)C)cc3)[nH]c2n(CC)c1=O
Ki [5]: 90 nM | Kb [8]: 73 nM

CCn1c(=O)c2nc(-c3ccc(OCC(=O)NCCNC(=O)[C@@H](N)CCCCN)cc3)[nH]c2n(CC)c1=O
logP [1]: -1.2 | Kb [9]: 23 nM

CCCn1c(=O)c2nc(-c3ccc(OCC(=O)NCCNC(=O)[C@@H](N)CCCCN)cc3)[nH]c2n(CCC)c1=O
Kb [10]: 37 nM

CCn1c(=O)c2nc(-c3ccccc3)[nH]c2n(CC)c1=O
Kb [11]: 210 nM

CCCn1c(=O)c2nc(-c3ccc(OCOC(=O)CC)cc3)[nH]c2n(CCC)c1=O
Kb [12]: 135 nM

Cn1c(=O)c2nc(-c3ccccc3)[nH]c2n(C)c1=O
Kb [11]: 1900 nM

CCn1c(=O)c2nc(-c3ccc(OCC(=O)Nc4ccc(C)cc4)cc3)[nH]c2n(CC)c1=O
Kb [2]: 100 nM
